ChEMBL document CHEMBL3228009, “Hypobetalipoproteinemic agents. 2. Compounds related to 4-(1-adamantyloxy)aniline” (J Med Chem, 1979)

Columns and labels:
[1] = species: Rattus norvegicus; test: Selectivity ratio of T/C for heparin precipitating lipoproteins to T/C for total serum cholesterol in diet-induced hypercholesteremic rat model; format: functional
[2] = system: Rattus norvegicus; test: Toxicity in diet-induced hypercholesteremic rat model assessed as increase in food intake at 50 mg/kg, po relative to control; format: organism-based; design: dose 50 mg/kg, route oral; conditions: in vivo
[3] = system: Rattus norvegicus; test: Hypobetalipoproteinemic activity in diet-induced hypercholesteremic rat model assessed as decrease in heparin precipitating lipoproteins at 50 mg/kg, po relative to control; format: functional
[4] = system: Rattus norvegicus; test: Hypobetalipoproteinemic activity in diet-induced hypercholesteremic rat model assessed as decrease in total serum cholesterol at 50 mg/kg, po relative to control; format: functional
[5] = system: Rattus norvegicus; test: Toxicity in diet-induced hypercholesteremic rat model assessed as increase in body weight at 50 mg/kg, po relative to control; format: organism-based; design: dose 50 mg/kg, route oral; conditions: in vivo

Compound	Selectivity ratio [1]	Activity [2]	T/C [3]	T/C [4]	Activity [5]
CNc1ccc(OC23CC4CC(CC(C4)C2)C3)cc1.Cl	0.63	> 73%	0.32	0.52	> 63%
Nc1ccc(S(=O)(=O)C23CC4CC(CC(C4)C2)C3)cc1	0.95	> 73%	1.07	1.12	> 63%
CCNc1ccc(OC23CC4CC(CC(C4)C2)C3)cc1.Cl	0.72	> 73%	0.36	0.49	> 63%
Nc1ccc(NC23CC4CC(CC(C4)C2)C3)cc1	0.9	> 73%	0.85	0.94	< 63%
OC12CC3CC(CC(C3)C1)C2	1.04	> 73%	0.98	0.94	> 63%
c1cc(N2CCCC2)ccc1CC12CC3CC(CC(C3)C1)C2	1.06	> 73%	0.87	0.82	> 63%
Fc1cc(OC23CC4CC(CC(C4)C2)C3)ccc1N1CCCC1	0.51	> 73%	0.3	0.58	> 63%
CS(=O)(=O)Nc1ccc(OC23CC4CC(CC(C4)C2)C3)cc1	0.85	> 73%	1.3	1.51	> 63%
c1ccc(N2CCCC2)c(CC23CC4CC(CC(C4)C2)C3)c1	1.01	> 73%	1.4	1.39	> 63%
CC(=O)Nc1ccc(OC23CC4CC(CC(C4)C2)C3)cc1	0.76	> 73%	0.5	0.66	> 63%
c1cc(N2CCOCC2)ccc1OC12CC3CC(CC(C3)C1)C2	0.94	> 73%	0.87	0.92	> 63%
CN(CCOc1ccccc1)c1ccc(OC23CC4CC(CC(C4)C2)C3)cc1	1.03	> 73%	1.06	1.03	> 63%
Nc1ccc(OC23CCC(CC2)CC3)cc1	0.9	> 73%	0.72	0.8	> 63%
CN(CCO)c1ccc(OC23CC4CC(CC(C4)C2)C3)cc1	0.88	> 73%	0.55	0.63	> 63%
CSCc1cc(OC23CC4CC(CC(C4)C2)C3)cc(C)c1N	0.96	> 73%	0.85	0.88	> 63%
Cl.Nc1ccc(C23CC4CC(CC(C4)C2)C3)cc1	0.99	> 73%	1.4	1.41	> 63%
CN(C=O)c1ccc(OC23CC4CC(CC(C4)C2)C3)cc1	0.72	> 73%	0.36	0.51	> 63%
Nc1ccc(OC2C3CC4CC(C3)CC2C4)cc1 (stereo not given)	0.82	> 73%	0.67	0.82	> 63%
Cc1cc(N)ccc1OC12CC3CC(CC(C3)C1)C2.Cl	0.6	> 73%	0.31	0.52	< 63%
CNC(=O)Nc1ccc(OC23CC4CC(CC(C4)C2)C3)cc1	0.91	> 73%	0.96	1.06	> 63%
CSCc1cc(OC23CC4CC(CC(C4)C2)C3)ccc1N	0.76	> 73%	0.38	0.49	> 63%
CN(c1ccc(N)cc1)C12CC3CC(CC(C3)C1)C2.Cl	0.98	< 73%	0.82	0.84	< 63%
Fc1cc(N2CCCC2)ccc1OC12CC3CC(CC(C3)C1)C2	1.02	> 73%	0.82	0.8	> 63%
Nc1ccc(OC23CC4CC(CC(C4)C2)C3)cc1	0.65	> 73%	0.35	0.54	> 63%
CCCCCCCCN(C)c1ccc(OC23CC4CC(CC(C4)C2)C3)cc1.Cl	0.91	> 73%	1.04	1.15	> 63%
